Laboratory results as given in US20150352108A1, “AMINO-PYRIMIDINE COMPOUNDS AS INHIBITORS OF TBK1 AND/OR IKK EPSILON” (Alzheimer's Institute of America, priority 2009, published 2015).

Key:
IKKε = target: T1, IKKε (Homo sapiens, UniProt Q14164); experiment: In-vitro IKKε kinase assay ([γ33]ATP filter-plate); type: biochemical; conditions: text bins; read-out: IC50 for inhibition of the kinase activity of IKKε
T1 construct: His-tag; made in house; host or cells: Sf9 insect cells
T1 sequence (Q14164 1-716): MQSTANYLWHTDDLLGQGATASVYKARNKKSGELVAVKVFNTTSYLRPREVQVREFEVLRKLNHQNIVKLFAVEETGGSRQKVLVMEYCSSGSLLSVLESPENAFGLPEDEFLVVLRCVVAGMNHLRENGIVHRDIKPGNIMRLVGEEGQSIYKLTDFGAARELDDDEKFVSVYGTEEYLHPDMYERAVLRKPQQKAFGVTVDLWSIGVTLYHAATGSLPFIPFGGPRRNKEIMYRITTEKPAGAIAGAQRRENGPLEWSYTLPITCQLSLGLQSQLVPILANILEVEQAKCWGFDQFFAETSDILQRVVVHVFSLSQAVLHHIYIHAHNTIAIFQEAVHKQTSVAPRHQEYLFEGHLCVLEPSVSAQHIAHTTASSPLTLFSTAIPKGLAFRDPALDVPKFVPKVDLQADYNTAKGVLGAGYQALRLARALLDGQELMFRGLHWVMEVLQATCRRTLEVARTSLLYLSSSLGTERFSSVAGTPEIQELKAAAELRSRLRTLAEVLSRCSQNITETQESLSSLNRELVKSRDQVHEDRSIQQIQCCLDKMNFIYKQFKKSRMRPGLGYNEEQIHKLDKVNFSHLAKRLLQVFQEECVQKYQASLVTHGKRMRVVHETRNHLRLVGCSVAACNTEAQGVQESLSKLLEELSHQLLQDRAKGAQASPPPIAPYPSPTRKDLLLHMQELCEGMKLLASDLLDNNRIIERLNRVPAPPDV
Method in brief: (§1)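 Phosphorylation of casein or myelin basic protein was counted by P-81 filter capture after 30-45 min reactions stopped with phosphoric acid, with counts normalized to DMSO after background subtraction. ATP was twice Km: 60 μM for TBK1 and 32 μM for IKKε, plus [γ33]ATP. Sf9-expressed His-tag enzymes were used at normal/sensitized levels of 0.1/0.02 μg/ml (TBK1) and 0.1/0.015 μg/ml (IKKε).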

DU4475 cells = experiment: Cell growth inhibition assay (CellTiter-Glo), DU4475; type: cell-based; conditions: Homo sapiens, DU-4475; 3-5 days
Method: DU4475, COLO205, and OPM2 cells were plated in 96-well plates at 5000 cells/well. The following day test compounds (compounds according to Formula I) were added, maintaining the final DMSO solvent concentration at 0.4%. After the desired incubation time (3-5 days), cell number was assayed using the CellTiter-Glo luminescent cell viability assay (Promega, Inc., Madison, Wis.). Viability was expressed as percent DMSO control after background subtraction.

TBK1 = target: T2, TBK1 (Homo sapiens, UniProt Q9UHD2); experiment: In-vitro TBK1 kinase assay ([γ33]ATP filter-plate); type: biochemical; conditions: text bins; read-out: IC50 for inhibition of the kinase activity of TBK1
T2 construct: His-tag; made in house; host or cells: Sf9 insect cells
T2 sequence (Q9UHD2 1-729): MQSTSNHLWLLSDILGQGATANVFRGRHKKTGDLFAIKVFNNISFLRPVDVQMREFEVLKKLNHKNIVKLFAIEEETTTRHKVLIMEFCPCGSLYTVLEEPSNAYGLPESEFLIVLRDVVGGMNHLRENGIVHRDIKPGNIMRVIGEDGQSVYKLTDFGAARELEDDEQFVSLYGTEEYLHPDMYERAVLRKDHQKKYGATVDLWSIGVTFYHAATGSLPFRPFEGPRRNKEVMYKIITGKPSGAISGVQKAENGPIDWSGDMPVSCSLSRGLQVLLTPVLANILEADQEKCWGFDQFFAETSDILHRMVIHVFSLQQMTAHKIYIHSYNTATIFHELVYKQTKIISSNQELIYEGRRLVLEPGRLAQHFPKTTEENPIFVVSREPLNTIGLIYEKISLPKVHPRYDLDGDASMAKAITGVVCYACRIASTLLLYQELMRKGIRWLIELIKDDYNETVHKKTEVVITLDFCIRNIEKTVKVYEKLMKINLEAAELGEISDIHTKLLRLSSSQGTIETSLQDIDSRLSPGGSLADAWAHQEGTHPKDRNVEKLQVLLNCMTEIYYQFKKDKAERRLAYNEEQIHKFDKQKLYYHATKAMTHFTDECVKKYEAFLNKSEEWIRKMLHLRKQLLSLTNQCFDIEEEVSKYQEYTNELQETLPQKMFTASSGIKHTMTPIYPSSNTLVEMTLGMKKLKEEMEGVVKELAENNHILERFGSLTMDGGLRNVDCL
Method in brief: as §1

[1] = test system: IKKε-mediated phosphorylation of IRF3; experiment: In-situ phosphorylation of IRF3 (pIRF3 Ser396 ELISA) in HEK293T cells cotransfected with IRF3 and IKKε; type: cell-based; conditions: Homo sapiens, HEK-293T; HEK293T cells, 20 hours, text bins; read-out: IC50 for inhibition of the in-situ IKKε-mediated phosphorylation of IRF3
Method in brief: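 Cells for the IRF7 Western blots carried IRF7 and TBK1 plasmids, were seeded at 150,000/well, exposed to compound overnight and probed for pSer477/Ser479 IRF7. The ELISA readout used IRF3 + IKKε-cotransfected HEK293T at 20,000/well with 20 h treatment, quantifying pSer396 IRF3 relative to DMSO, plus a parallel CellTiter-Glo viability check.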

[2] = test system: secreted RANTES, prostate cancer DU145 cells; experiment: ELISA to detect secreted RANTES, DU145 cells; type: cell-based; conditions: Homo sapiens, DU-145; cell system (DU145 or Poly(I:C)-induced MALME-3) not specified; read-out: IC50 for inhibition of the secretion of RANTES
Method: Prostate cancer DU145 cells were seeded at 20,000 cells/well in a 96-well tissue culture plate. The following day media was removed and replaced with complete media containing IKKε/TBK1 inhibitor (starting concentration 25 µM, 1:3 dilutions, final DMSO 0.05%). Cells were incubated for 20 hours and culture supernatant used to determine secreted RANTES levels using a commercially available ELISA kit (R & D Systems, Minneapolis, Minn.).

[3] = test system: RANTES secretion, RAW264.7 cells; experiment: RANTES secretion by RAW264.7 cells after nucleic acid agonists (ELISA); type: cell-based, Mouse; conditions: 100 nM
From the text: (§2) Mouse RAW264.7 macrophage-like cells provide a model for macrophage function in tissue culture. To investigate the efficacy of compounds according to Formula I in inhibiting nucleic acid cytosolic receptor pathways RAW264.7 cells were pretreated with a compound according to Formula I (Example Compound 471) and then exposed to various single stranded and double stranded RNA and DNA agonists introduced into the cell. To track IKKε/TBK1 signaling pathway activation, RANTES or IFN-β protein secretion was monitored by ELISA-based assays (R & D systems), such as those described above.
RAW264.7 cells were seeded in 96-well culture plates and allowed to grow overnight. The following day, media was replaced and cells were pretreated with 100 nM Example Compound 471 (0.1% final DMSO concentration). After one hour cells were transfected with Lipofectime LTX reagent (Invitrogen, Carlsbad, Calif.) and one of the following agonists: low molecular weight Poly(I:C) (InvivoGen, San Diego, Calif.) at 10 μg/ml to activate RIG-I; high molecular weight Poly(I:C) (InvivoGen, San Diego, Calif.) at 10 μg/ml to activate MDA5; Poly(dA:dT) (InvivoGen, San Diego, Calif.) at 1 ug/ml; 45-basepair double stranded interferon stimulatory DNA oligo (ISD) at 10 μg/ml (Stetson and Medzhitov; Recognition of cytosolic DNA activates an IRF3-dependent innate immune response; Immunity, 24:93-103, 2006); ssDNA at 10 μg/ml (InvivoGen, San Diego, Calif.), ssRNA at 0.5 μg/ml (InvivoGen, San Diego, Calif.), or salmon sperm genomic DNA (gDNA) (InvivoGen, San Diego, Calif.) at 10 ug/ml to activate DAI, IFI16, and other cytosolic nucleic acid receptors. RANTES (FIG. 5) and IFN-β (FIG. 6) secretion were quantified using ELISA kits (Mouse CCL5/RANTES, R&D Systems, Inc., Minneapolis, Minn. and Mouse IFN-β, Thermo Fisher Scientific, Rockford, Ill.).

[4] = test system: IFN-β secretion, RAW264.7 cells; experiment: IFN-β secretion by RAW264.7 cells after nucleic acid agonists (ELISA); type: cell-based, Mouse; conditions: 100 nM
From the text: as §2
RAW264.7 cells were seeded in 96-well culture plates and allowed to grow overnight. The following day, media was replaced and cells were pretreated with 100 nM Example Compound 471 (0.1% final DMSO concentration). […] RANTES (FIG. 5) and IFN-β (FIG. 6) secretion were quantified using ELISA kits (Mouse CCL5/RANTES, R&D Systems, Inc., Minneapolis, Minn. and Mouse IFN-β, Thermo Fisher Scientific, Rockford, Ill.).

SMILES | IC50 (IKKε) [nM] | IC50 (DU4475 cells) [nM] | IC50 (TBK1) [nM] | IC50 [1] [nM] | IC50 [2] [nM] | induction of RANTES secretion by DNA agonists ISD, ssDNA, poly(dA:dT), gDNA [3] | induction of RANTES secretion by low and high molecular weight poly(I:C) [3] | induction of RANTES secretion by ssRNA agonist [3] | induction of IFN-β secretion by DNA agonists ISD, ssDNA, poly(dA:dT), gDNA [4] | induction of IFN-β secretion by low and high molecular weight poly(I:C) [4]
COCCOCC(=O)Nc1cc(Nc2nccc(-c3ccc(OC)c(C#N)c3)n2)cc(OC)c1 [compound 316, N-(3-{[4-(3-Cyano-4-methoxyphenyl)pyrimidin-2-yl]amino}-5-methoxyphenyl)-2-(2-methoxyethoxy) acetamide] | 5 to 50 | ≤ 10 | – | – | – | – | – | – | – | –
CC(=O)NCc1ccc(Nc2nccc(-c3ccc(OC4CCOCC4)c(C#N)c3)n2)cc1 [compound 492, N-[4-({4-[3-cyano-4-(tetrahydro-2H-pyran-4-yloxy)phenyl]pyrimidin-2-yl}amino)benzyl] acetamide] | < 5 | – | < 10 | < 100 | < 10 | – | – | – | – | –
COc1cc(Nc2nccc(-c3ccc(OC4CCOCC4)c(C#N)c3)n2)ccc1C(=O)N(C)CCN(C)C [compound 505, 4-({4-[3-cyano-4-(tetrahydro-2H-pyran-4-yloxy)phenyl]pyrimidin-2-yl}amino)-N-[2-(dimethylamino)ethyl]-2-mrthoxy-N-methylbenzamide] | < 5 | – | < 10 | < 100 | < 10 | – | – | – | – | –
COc1ccc(-c2ccnc(Nc3cc(CO)c(OC)c(OC)c3)n2)cc1C#N [Example 127, 5-(2-{[3-(Hydroxymethyl)-4,5-dimethoxyphenyl]amino}pyrimidin-4-yl)-2-methoxybenzonitrile] | < 5 | ≤ 10 | < 10 | – | – | – | – | – | – | –
COc1cc(-c2ccnc(Nc3ccc(N4CCN(CCO)CC4)cc3)n2)cc(C#N)c1OC1CCOCC1 [compound 446, 5-[2-({4-[4-(2-Hydroxyethyl)piperazin-1-yl]phenyl}amino)pyrimidin-4-yl]-3-methoxy-2-(tetrahydro-2H-pyran-4-yloxy)benzonitrile] | < 5 | – | < 10 | < 100 | < 10 | – | – | – | – | –
N#Cc1cc(-c2ccnc(Nc3ccc(N4CCOCC4)cc3)n2)ccc1O[C@@H]1CCN(C(=O)CO)C1 [compound 471, 2-{[(3R)-1-(hydroxyacetyl)pyrrolidin-3-yl]oxy}-5-(2-{[4-(morpholin-4-yl)phenyl]amino}pyrimidin-4-yl)benzonitrile] | < 5 | – | < 10 | < 100 | – | potently inhibited | modestly inhibited | potently inhibited | potently inhibited | modestly inhibited
COc1cc(NC(=O)CCSC)cc(Nc2nccc(-c3ccc(OC)c(C#N)c3)n2)c1 [compound 339, N-(3-{[4-(3-Cyano-4-methoxyphenyl)pyrimidin-2-yl]amino}-5-methoxyphenyl)-3-(methylsulfanyl) propanamide] | 5 to 50 | ≤ 10 | 10 to 100 | – | – | – | – | – | – | –
COc1ccc(Nc2nccc(-c3ccc(OC4CCOCC4)c(C#N)c3)n2)cc1OCC(N)=O [Example 132, 2-[5-({4-[3-cyano-4-(tetrahydro-2H-pyran-4-yloxy)phenyl]pyrimidin-2-yl}amino)-2-methoxyphenoxy] acetamide] | < 5 | – | < 10 | 250 to 500 | – | – | – | – | – | –
COc1cc(Nc2nccc(-c3ccc(OC4CCOCC4)c(C#N)c3)n2)ccc1S(=O)(=O)N(C)C1CCN(C)CC1 [Example 212] | < 5 | – | < 10 | < 100 | – | – | – | – | – | –
COc1ccc(Nc2nccc(-c3ccc(OC4CCOCC4)c(C#N)c3)n2)cc1OCCOCCN [Example 32, 5-[2-({3-[2-(2-aminoethoxy)ethoxy]-4-methoxyphenyl}amino)pyrimidin-4-yl]-2-(tetrahydro-2H-pyran-4-yloxy)benzonitrile] | < 5 | – | < 10 | 100 to 250 | – | – | – | – | – | –
